# Values of other authors as cited in patent US20090047357A1, “METHOD OF PRODUCING DRUG-CONTAINING WAX MATRIX PARTICLES, EXTRUDER TO BE USED IN THE METHOD AND SUSTAINED-RELEASE PREPARATION CONTAINING CILOSTAZOL” (OTSUKA PHARMACEUTICAL CO., LTD., priority 2005, published 2009).
structure (smiles),measurement,value
Cn1c(=O)c2[nH]cnc2n(C)c1=O [theophylline],water solubility,about 0.6 w/v %
